For orientation: GI50 means the concentration that inhibits growth by half. The term EC50 denotes the concentration giving half of the maximal effect.

The source made the active and inactive calls. No cut-off for these calls is given here.

The source of these data is ChEMBL document CHEMBL2311520, “Total synthesis of AMF-26, an antitumor agent for inhibition of the Golgi system, targeting ADP-ribosylation factor 1” (J Med Chem, 2013).

For test [1], the system named is BSY-1. In words: Induction of golgi disassembly in human BSY1 cells assessed as presence of GBF1 in cytoplasm at 1 uM after 1 hr by immunofluorescence microscopy. Type of test: functional, cell-based.
A short description of test [2]: Growth inhibition of human HBC4 cells after 48 hrs by Sulforhodamine B assay. Type of test: functional. Particulars: Homo sapiens, HBC4, 48 h; read-out: GI50.
A short description of test [3]: Induction of golgi disassembly in human BSY1 cells assessed as presence of GBF1 in cytoplasm after 1 hr by immunofluorescence microscopy. Type of test: functional, cell-based. As to conditions: bsy-1.
The subject of test [4] is HBC4. In words: Induction of golgi disassembly in human HBC4 cells assessed as presence of GBF1 in cytoplasm at 10 uM after 1 hr by immunofluorescence microscopy. It is filed as functional, cell-based.
Test [5] is described as follows: Induction of golgi disassembly in human HBC4 cells assessed as presence of GBF1 in cytoplasm after 1 hr by immunofluorescence microscopy. It is filed as functional, cell-based.
The nature of test [6]: Growth inhibition of human BSY1 cells after 48 hrs by Sulforhodamine B assay. It is filed as functional. Particulars: BSY-1, 48 h, read-out: GI50.
For test [7], the system named is HBC4. In words: Induction of golgi disassembly in human HBC4 cells assessed as presence of GBF1 in cytoplasm at 1 to 100 nM after 1 hr by immunofluorescence microscopy. It is filed as functional, cell-based.
In test [8] the test system is BSY-1. Briefly: Induction of golgi disassembly in human BSY1 cells assessed as presence of GBF1 in cytoplasm at 1 to 100 nM after 1 hr by immunofluorescence microscopy. It is filed as functional, cell-based.

On to `C[C@@H]1[C@@H](O)[C@H](C)C[C@@H]2C=C[C@H](C)[C@H](/C=C/C(=O)NCc3cccnc3)[C@@H]12`, for which the outcome in test [1] and in test [4] was inactive. Further, the GI50 in test [2] and in test [6] was over 10 µM throughout. The EC50 in test [3] and in test [5] was over 10 µM in each case.

For `C/C(=C\C=C\[C@@H]1[C@H]2[C@H](C)[C@@H](O)[C@H](C)C[C@@H]2C=C[C@@H]1C)C(=O)NCc1cccnc1` (stereo in doubt; form 2), the result in test [7] and in test [8] was Active.
